Measurements from patent US11634447B2 (priority 2012, dated 2023).

Tested on: bacterial strain LF82 binding to the glycoprotein BSA-(Mannose)3
Assay: Bacterial Binding Assay (BBA)
Assay type: cell-based, Escherichia coli
Conditions: read-out: Bacterial Binding Assay IC50, LF82/Luciferase strain binding to BSA-(Man)3 coated plates, luminescence
From the text: The purpose of the Bacterial Binding Assay (BBA) is to determine the inhibition activity of
selective FimH antagonists on the bacterial strain LF82 binding to the glycoprotein BSA-(Mannose)3.
Below is a list of the Materials used to run the BBA are described below. • 1. LB broth: Supplier: Gibco, #10855 • 2. D-PBS: Supplier: Wisent, #311-425-CL • 3. LB agar plates • 4. 96-well black plate (high binding): Supplier: Costar, #3925 • 5. TopSeal™-A adhesive sealing films; Supplier PerkinElmer, #6005185 • 6. Carbonate-bicarbonate buffer pH 9.6 tablets, Supplier: Medicago, #09-8922-24 • 7. Water, Supplier: Gibco, #15230-162 • 8. Bovine serum albumin (BSA): Supplier: Sigma, #A-7888 • 9. (Man)3-BSA (α1-3, α1-6 Mannotriose-BSA, 1 mg), V-Labs, #NGP1336, lot #HGDX37-169-1 • 10. Tween 20: Supplier: Sigma, #P9416 • 11. Bright-Glo Luciferase Assay System: Supplier: Promega, #E2610 • 12. LF82/Luciferase strain: Invasive ability of an Escherichia coli strain isolated from the ileal mucosa of a patient with Crohn ? disease. Boudeau J, Glasser A L, Masseret E, Joly B, Darfeuille-Michaud A, Infect Immun. 1999, 67(9), 4499-509
Solutions and buffers used to run the BBA are described below. • 1. 0.04M carbonate-bicarbonate buffer (coating buffer) • 2. 40 μg/mL BSA-(Man)3: Dissolve 1 mg of (Man)3-BSA in 25 mL of water. • 3. 4000 μg/mL BSA • 4. 40 μg/mL BSA • 5. 1 μg/mL BSA-(Man)3: 150 μL of 40 μg/mL BSA-(Man)3+5.85 mL of 40 μg/mL BSA • 6. 0.5 μg/mL BSA-(Man)3 in 0.02M carbonate-bicarbonate buffer. • 7. 20 μg/mL BSA in 0.02M carbonate-bicarbonate buffer • 8. Blocking buffer (2% BSA/DPBS): 1 g of BSA in 50 mL D-PBS • 9. 2× binding buffer (0.2% BSA/D-PBS): 5 mL of blocking buffer+45 mL D-PBS. • 10. Washing buffer (D-PBS/0.01% Tween 20): 10 μL of Tween 20 in 100 mL D-PBS. • 11. 1× Bright-Glo Luciferase substrate: Dilute 1:1 the Bright-Glo Luciferase Assay System with D-PBS The experimental protocol to run the BBA is described below.
Overnight culture of LF82/Luciferase strain: Into two Falcon 50 mL tubes, add 20 mL of LB+20 μL of 50 mg/mL Kanamycin and inoculate with a loop from glycerol stock of the LF82/Luciferase strain. Incubate overnight at 37° C. with no shaking.
Glycoprotein coating of 96-well plates: Add 100 μL/well of 0.5-2 μg/mL BSA-(Man)3. 20 μg/mL BSA is used as the control background. Seal plate using an adhesive sealing film and incubate overnight at room temperature. Wash the 96-well plate three times with 150 μL/well of D-PBS, add 170 μL/well of blocking solution and incubate 45 min (minimum) at room temperature.
Preparation of bacterial suspension: Mix the two cultures tubes (40 mL) and perform a 1:10 dilution in LB (900 μl LB+100 μl culture. Measure optical density (OD) of the bacterial cultures. OD1 ˜5×10^8 cells/mL. Centrifuge LF82 culture for 20 min at 3500 rpm at room temperature. Re-suspend bacterial pellet in D-PBS and centrifuge again for 20 min at 3500 rpm. Re-suspend bacterial pellet in D-PBS to obtain a bacterial concentration of 2×10^9 bacteria/mL. Dilute 1/10 in D-PBS to obtain a final bacterial concentration of 2×10^8 bacteria/mL (=107 bacteria/50 μL). Perform 1/10 serial dilutions in LB of each bacterial suspension, plate 10 μL of dilutions on LB agar plates (final dilutions of 10^−7) and incubate overnight at 37° C. and count CFUs to determine the actual bacteria density in the assay.
Bacterial binding assay: Add 147 μL 2× binding buffer to compound plate (containing 3 μL of compound). After blocking step is performed (at least 45 min), wash plates three times with 200 μL/well of D-PBS. With a 100 μL multichannel manual pipettor, add 50 µL/well of compound diluted in 2× binding buffer. With a 100 μL multichannel manual pipettor, add 50 μL/well of bacterial suspension. Agitate at slow speed for 1 min and incubate 40-75 min at room temperature. Wash 5 times with 150 μL/well of washing buffer and then once with D-PBS. Add 100 μL/well of 1× Bright-Glo Luciferase substrate. […]

Structure (SMILES) | IC50 [nM]
CCc1cc(C#C[C@H]2O[C@H](CO)[C@@H](O)[C@H](O)[C@@H]2O)ccc1C#C[C@H]1O[C@H](CO)[C@@H](O)[C@H](O)[C@@H]1O [Compound 98, (2R,3S,4R,5S,6R)-2-[2-[3-ethyl-4-[2-[(2R,3S,4R,5S,6R)-3,4,5-trihydroxy-6-(hydroxymethyl)tetrahydropyran-2-yl]ethynyl]phenyl]ethynyl]-6-(hydroxymethyl)tetrahydropyran-3,4,5-triol] | 12
COC(=O)Cc1cc(-c2cccc([C@H]3O[C@H](CO)[C@@H](O)[C@H](O)[C@@H]3O)c2)ccc1-c1cccc([C@H]2O[C@H](CO)[C@@H](O)[C@H](O)[C@@H]2O)c1 [Compound 140, Methyl 2-[2,5-bis[3-[(2R,3S,4R,5S,6R)-3,4,5-trihydroxy-6-(hydroxymethyl)tetrahydropyran-2-yl]phenyl]phenyl]acetate] | 353
CN(C)CC(=O)c1c(C#C[C@H]2O[C@H](CO)[C@@H](O)[C@H](O)[C@@H]2O)ccc2c1C1(CCNCC1)c1cc(C#C[C@H]3O[C@H](CO)[C@@H](O)[C@H](O)[C@@H]3O)ccc1-2 [Compound 222, 1-[2,7-bis[2-[(2R,3S,4R,5S,6R)-3,4,5-trihydroxy-6-(hydroxymethyl)tetrahydropyran-2-yl]ethynyl]spiro[fluorene-9,4piperidine]-1yl]-2-(dimethylamino)ethanone] | 0.08
Cc1cc(C#C[C@H]2O[C@H](CO)[C@@H](O)[C@H](O)[C@@H]2O)ccc1[C@H]1O[C@H](CO)[C@@H](O)[C@H](O)[C@@H]1O [Compound 142] | 91
OC[C@H]1O[C@H](C#Cc2ccc(C#C[C@H]3O[C@H](CO)[C@@H](O)[C@H](O)[C@@H]3O)c(F)c2F)[C@@H](O)[C@@H](O)[C@@H]1O [Compound 78, (2R,3S,4R,5S,6R)-2-[2-[2,3-difluoro-4-[2-[(2R,3S,4R,5S,6R)-3,4,5-trihydroxy-6-(hydroxymethyl)tetrahydropyran-2-yl]ethynyl]phenyl]ethynyl]-6-(hydroxymethyl)tetrahydropyran-3,4,5-triol] | 63
CC(C)C1(O)c2cc(C#C[C@H]3O[C@H](CO)[C@@H](O)[C@H](O)[C@@H]3O)ccc2-c2ccc(C#C[C@H]3O[C@H](CO)[C@@H](O)[C@H](O)[C@@H]3O)cc21 [Compound 165, (2R,3S,4R,5S,6R)-2-[2-[9-hydroxy-9-isopropyl-7[2-[(2R,3S,4R,5S,6R)-3,4,5-trihydroxy-6-(hydroxymethyl)tetrahydropyran-2-yl]ethynyl]fluoren-2-yl]ethynyl]-6-(hydroxymethyl)tetrahydropyran-3,4,5-triol] | 2.4
OC[C@H]1O[C@H](C#Cc2ccc(C#C[C@H]3O[C@H](CO)[C@@H](O)[C@H](O)[C@@H]3O)c3cnccc23)[C@@H](O)[C@@H](O)[C@@H]1O [Compound 130, (2R,3S,4R,5S,6R)-2-(hydroxymethyl)-6-[2-[8-[-2-[(2R,3S,4R,5S,6R)-3,4,5-trihydroxy-6-(hydroxymethyl)tetrahydropyran-2-yl]ethynyl]-5-isoquinolyl]ethynyl]tetrahydropyran-3,4,5-triol] | 67
CCn1c2ccc(C#C[C@H]3O[C@H](CO)[C@@H](O)[C@H](O)[C@@H]3O)cc2c2cc(C#C[C@H]3O[C@H](CO)[C@@H](O)[C@H](O)[C@@H]3O)ccc21 [Compound 107, (2R,3S,4R,5S,6R)-2-[2-[9-ethyl-6-[2-[(2R,3S,4R,5S,6R)-3,4,5-trihydroxy-6-(hydroxymethyl)tetrahydropyran-2-yl]ethynyl]carbazol-3-yl]ethynyl]-6-(hydroxymethyl)tetrahydropyran-3,4,5-triol] | 13
Cc1cc(-c2ccc([C@H]3O[C@H](CO)[C@@H](O)[C@H](O)[C@@H]3O)cc2F)ccc1[C@H]1O[C@H](CO)[C@@H](O)[C@H](O)[C@@H]1O [Compound 150, (2R,2,3S,3,4R,4,5S,5,6R,6)-6,6(2-fluoro-3methyl-[1,1biphenyl]-4,4diyl)bis(2-(hydroxymethyl)tetrahydro-2H-pyran-3,4,5-triol)] | 71
OC[C@H]1O[C@H](c2ccc(C#C[C@H]3O[C@H](CO)[C@@H](O)[C@H](O)[C@@H]3O)cc2)[C@@H](O)[C@@H](O)[C@@H]1O [Compound 141, (2R,3S,4R,5S,6R)-2-(hydroxymethyl)-6-[2-[4-[(2R,3S,4R,5S,6R)-3,4,5-trihydroxy-6-(hydroxymethyl)tetrahydropyran-2-yl]phenyl]ethynyl]tetrahydropyran-3,4,5-triol] | 340
O=C(CN1CCCC1=O)c1c(C#C[C@H]2O[C@H](CO)[C@@H](O)[C@H](O)[C@@H]2O)ccc2c1C1(CCNCC1)c1cc(C#C[C@H]3O[C@H](CO)[C@@H](O)[C@H](O)[C@@H]3O)ccc1-2 [Compound 241, 1-[2-[2,7-bis[2-[(2R,3S,4R,5S,6R)-3,4,5-trihydroxy-6-(hydroxymethyl)tetrahydropyran-2-yl]ethynyl]spiro[fluorene-9,4piperidine]-1yl]-2-oxo-ethyl]pyrrolidin-2-one] | 0.03
Cn1nccc1C(=O)c1c(C#C[C@H]2O[C@H](CO)[C@@H](O)[C@H](O)[C@@H]2O)ccc2c1C1(CCNCC1)c1cc(C#C[C@H]3O[C@H](CO)[C@@H](O)[C@H](O)[C@@H]3O)ccc1-2 [Compound 237, [2,7-bis[2-[(2R,3S,4R,5S,6R)-3,4,5-trihydroxy-6-(hydroxymethyl)tetrahydropyran-2-yl]ethynyl]spiro[fluorene-9,4piperidine]-1yl]-(2-methylpyrazol-3-yl)methanone] | 0.22
CN1CCC(n2c3cc(C#C[C@H]4O[C@H](CO)[C@@H](O)[C@H](O)[C@@H]4O)ccc3c3ccc(C#C[C@H]4O[C@H](CO)[C@@H](O)[C@H](O)[C@@H]4O)cc32)CC1 [Compound 187, (2R,3S,4R,5S,6R)-2-(hydroxymethyl)-6-[2-[9-(1-methyl-4-piperidyl)-7-[2-[(2R,3S,4R,5S,6R)-3,4,5-trihydroxy-6-(hydroxymethyl)tetrahydropyran-2-yl]ethynyl]carbazol-2-yl]ethynyl]tetrahydropyran-3,4,5-triol] | 1
O=C(Cn1c2cc(C#C[C@H]3O[C@H](CO)[C@@H](O)[C@H](O)[C@@H]3O)ccc2c2ccc(C#C[C@H]3O[C@H](CO)[C@@H](O)[C@H](O)[C@@H]3O)cc21)N1CCOCC1 [Compound 180, 2-[2,7-bis[2-[(2R,3S,4R,5S,6R)-3,4,5-trihydroxy-6-(hydroxymethyl)tetrahydropyran-2-yl]ethynyl]carbazol-9-yl]-1-morpholino-ethanone] | 5.5
O=C(c1c(C#C[C@H]2O[C@H](CO)[C@@H](O)[C@H](O)[C@@H]2O)ccc2c1C1(CCNCC1)c1cc(C#C[C@H]3O[C@H](CO)[C@@H](O)[C@H](O)[C@@H]3O)ccc1-2)[C@H]1CCCO1 [Compound 233, [2,7-bis[2-[(2R,3S,4R,5S,6R)-3,4,5-trihydroxy-6-(hydroxymethyl)tetrahydropyran-2-yl]ethynyl]spiro[fluorene-9,4piperidine]-1yl]-[(2R)-tetrahydrofuran-2-yl]methanone] | 0.05
